{"source": "paper PMC6130489", "about": "“Caffeic acid methyl and ethyl esters exert potential antidiabetic effects on glucose and lipid metabolism in cultured murine insulin-sensitive cells through mechanisms implicating activation of AMPK” (Pharmaceutical Biology, 2017)", "key": {"[1]": {"tested_on": "L6 GLUT4myc myotubes", "experiment": "3H-Deoxyglucose uptake assay", "type": "cell-based, rat", "conditions": "insulin 100 nM, 15 min", "method": "Measurement of glucose uptake was performed as previously described (Eid et al. [2010]) using [^3H]-2-deoxyglucose (TRK-383, Amersham Biosciences, Buckinghamshire, UK). Nonspecific uptake was measured in the presence of cytochalasin B (10 μM) and was subtracted from all values.\n(§1) Figure 1. (A) CAME and CAEE increase ^3H-deoxyglucose uptake in L6 GLUT4myc myotubes. Cells were treated with 50 μM of either CAME, CAEE, or with vehicle (0.1% DMSO) for 18 h. 100 nM insulin served as the positive control and was applied for the last 15 min of the treatment in vehicle-treated cells. Glucose uptake was performed as described in Materials and Methods section. (B) CAME and CAEE stimulate GLUT4 translocation in L6 GLUT4myc myotubes. Cells were treated as previously described, cell surface GLUT4myc was detected by an enzyme-linked colorimetric assay. By the end of the treatment, L6- GLUT4myc cells were labeled with anti-c-myc antibody as described in Materials and Methods section. Results represent the means ± SEM of three independent experiments, and 3-4 cells were analyzed for each condition per experiment. *Indicates a significant (p ≤ 0.05) difference, **(p < 0.01) from the vehicle control group as assessed by ANOVA. […] L6 myotubes treated with CAME or CAEE (50 μM each), DMSO (0.1%) for 18 h. Insulin (100 nM) and AICAR (2 mM) both applied for 30 min and served as positive controls. Immunoblots were probed with anti phospho-AMPK (Thr 172), anti-GLUT4, anti-GLUT1 and anti-phospho-Akt (Ser 473) antibodies as described in Materials and Methods section. Anti-β-actin antibody was used as a loading control. Representative blots are shown in panel C. Data are expressed as (D) phospho-AMPK/β-actin, (E) GLUT4/β-actin and (F) GLUT1/β-actin and are given as mean ± SEM from 3 experiments. *p < 0.05 indicates a significant difference, **(p < 0.01) from the vehicle control group."}, "[2]": {"tested_on": "GLUT4myc", "experiment": "Cell surface GLUT4myc (GLUT4 translocation), OPD assay", "type": "cell-based, rat", "conditions": "insulin 100 nM, 15 min; L6-GLUT4myc", "method": "L6-GLUT4myc myotubes grown in 24-well plates were serum-starved for 4 h and were incubated with either CAME or CAEE (50 μM) for 18 h or insulin (100 nM) for 15 min. Cell-surface GLUT4myc levels were measured by an antibody-coupled colorimetric assay (Niu et al. [2003]) using O-phenylenediamine dihydrochloride (OPD) reagent (1 mL/well) (Sigma-Aldrich, St. Louis, MO), an anti-c-myc antibody (1:200 dilution; Santa Cruz Biotechnology, Santa Cruz, CA) and horseradish peroxidase (HRP)-conjugated goat anti-rabbit IgG at 4 °C (1:1000 dilution; Cell Signaling Technologies, Danvers, MA).\nas §1, with “Anti-β-actin antibody was used as a loading control. Representative blots are shown in panel C.” left out"}, "[3]": {"target": "T1, G6Pase (Rattus norvegicus, UniProt P43428)", "T1 sequence (P43428 1-357)": "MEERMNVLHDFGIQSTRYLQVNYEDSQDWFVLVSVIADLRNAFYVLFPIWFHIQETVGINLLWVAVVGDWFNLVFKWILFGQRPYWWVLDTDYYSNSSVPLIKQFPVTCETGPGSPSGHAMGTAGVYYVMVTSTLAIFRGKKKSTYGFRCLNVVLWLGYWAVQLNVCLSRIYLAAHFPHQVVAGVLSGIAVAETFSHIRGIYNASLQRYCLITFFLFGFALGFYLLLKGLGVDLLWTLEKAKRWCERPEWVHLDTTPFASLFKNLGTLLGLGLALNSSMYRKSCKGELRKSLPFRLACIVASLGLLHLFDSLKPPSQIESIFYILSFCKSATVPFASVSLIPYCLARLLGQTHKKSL", "experiment": "Enzymatic activity of G6Pase in H4IIE cells", "type": "cell-based", "conditions": "insulin 100 nM, same treatment period, relative to DMSO", "method": "At 90% confluence, H4-IIE cells were treated with 12.5, 25, 50 and 100 μM of either CAME or CAEE in serum free medium. Vehicle (0.1% DMSO)-treated and 100 nM insulin-treated cells served as the negative and positive control respectively. The activity of G6Pase was assessed by measuring the rate of glucose production in the presence of a non-limiting amount of glucose-6-phosphate (G6P) as described elsewhere (Nachar et al. [2013]). Total glucose production was measured using a commercial glucose assay kit (AutoKit Glucose; Wako Diagnostics, Richmond, VA). Protein content was measured using bicinchoninic acid (BCA) assay (Simpson [2008]) and G6Pase activity was expressed in relation to protein content.\nFigure 2. CAME and CAEE inhibit G6Pase by mechanisms involving activation of AMPK. (A) H4IIE hepatocytes were treated for 16 h with several concentrations (12.5, 25, 50 and100 μM) of either CAME or CAEE and G6Pase activity was determined colorimetrically using a commercial glucose assay kit as described under Materials and Methods. Data are expressed relative to vehicle control (0.1% DMSO, 0% inhibition). Insulin (100 nM) applied for similar treatment period served as the positive control. (B and C) Cells were treated with the optimal nontoxic concentration of either CAME, CAEE (50 μM each), or DMSO (0.1%) for 18 h, insulin (100 nM), AICAR (1 mM) applied for 30 min served as the positive controls. (B) The upper blot was probed with anti-phospho-AMPK antibody (Thr 172) and the lower blot was probed with anti-pan AMPK. (C) Blots were probed with antibodies against phospho-Akt (Ser 473) or pan-Akt. Immunoblots are representative of three independent experiments with similar results. (D) Data are expressed as phospho-AMPK/pan-AMPK and are given as mean ± SEM from 3 experiments. *p < 0.05 indicates a significant difference, **(p < 0.01), ***(p < 0.001) from the vehicle control group."}, "[4]": {"tested_on": "AMPK", "experiment": "Western immunoblot phospho-AMPK in L6 myotubes", "type": "cell-based, rat", "conditions": "AICAR 30 min (2 mM per Figure 1 legend, 1 mM per methods)", "method": "L6 cells myotubes, H4IIE cells and 3T3-L1 adipocytes were treated with either CAME, CAEE (50 μM each) or vehicle (DMSO) for 18 h. Insulin (100 nM) or aminoimidazole carboxamide ribonucleotide (AICAR; 1 mM) were added to some vehicle-treated wells 30 min prior to the end of the treatment and served as the positives controls. Protein content was assayed by the bicinchoninic acid method (Thermo Scientific Pierce Protein Research, Rockford, IL) standardized to bovine serum albumin. Western immunoblotting was performed as described elsewhere (Eid et al. [2010]). Membranes were incubated overnight with phospho-AMPK, phospho-Akt, GLUT4, GLUT1 and β-actin antibodies (1:1000 dilution, Cell Signalling Technology, Danvers, MA), or with PPAR-γ, SREBP-1 (1:200, Santa Cruze Biotechnology, Santa Cruz, CA), followed by incubation with HRP-coupled secondary antibody (1:10,000) for 1 h. Immunoreactive bands were visualized by enhanced chemiluminescence and quantified by the Scion Image program (Scion Corporation, Frederick, MD). Experiments were repeated on 3 different passages of cells, each passage containing all conditions in parallel.\nFigure 1. (A) CAME and CAEE increase ^3H-deoxyglucose uptake in L6 GLUT4myc myotubes. Cells were treated with 50 μM of either CAME, CAEE, or with vehicle (0.1% DMSO) for 18 h. 100 nM insulin served as the positive control and was applied for the last 15 min of the treatment in vehicle-treated cells. Glucose uptake was performed as described in Materials and Methods section. […] Cells were treated as previously described, cell surface GLUT4myc was detected by an enzyme-linked colorimetric assay. […] Results represent the means ± SEM of three independent experiments, and 3-4 cells were analyzed for each condition per experiment. *Indicates a significant (p ≤ 0.05) difference, **(p < 0.01) from the vehicle control group as assessed by ANOVA. […] Data are expressed as (D) phospho-AMPK/β-actin, (E) GLUT4/β-actin and (F) GLUT1/β-actin and are given as mean ± SEM from 3 experiments. *p < 0.05 indicates a significant difference, **(p < 0.01) from the vehicle control group."}}, "data": [{"compound": "insulin: Insulin from bovine pancreas, positive control (100 nM)", "values": [{"measurement": "glucose uptake, percent of DMSO control", "setting": "[1]", "result": "175 ± 13", "unit": "%"}, {"measurement": "2-deoxyglucose uptake rate", "setting": "[1]; basal (DMSO) 10.1 ± 0.5", "result": "17.7 ± 1.2", "unit": "pmol/min/mg protein"}, {"measurement": "GLUT4 translocation, fold relative to DMSO", "setting": "[2]", "result": "1.73 ± 0.18", "unit": "fold"}, {"measurement": "inhibition of G6Pase activity", "setting": "[3]", "result": "70.7 ± 2.3", "unit": "%"}]}, {"compound": "NC(=O)c1ncn([C@@H]2O[C@H](CO)[C@@H](O)[C@H]2O)c1N", "note": "[AICAR, aminoimidazole carboxamide ribonucleotide, reference compound]", "values": [{"measurement": "AMPK phosphorylation, fold increase over DMSO", "setting": "[4]", "result": 8.5, "unit": "fold"}]}]}
